Measurements from ChEMBL document CHEMBL3638389, “Chemokine receptor antagonists” (2014).

Molecular target: C-C chemokine receptor type 2 (Homo sapiens, UniProt P41597)
Experiment: Radioligand Binding Assay: Radioligand binding assays were performed in CHO cells expressing human CCR2B and Galpha±16 coupling protein. All compounds were dissolved in DMSO and assays run at a final DMSO concentration of 0.5% (v/v). [125I]-labeled human MCP-1 was purchased from PerkinElmer. Unlabelled human MCP-1 was purchased from PeproTech.Compounds were serially diluted in DMSO before diluting into assay buffer (25 mM HEPES, pH 7.4, 5 mM MgCl2, 1 mM CaCl2, 0.5% BSA) with cryo preserved CHO cells expressing human CCR2B and the Galpha±16 coupling protein (30x10^3/well) and [125I]-MCP-1 (50 pM). The reaction was incubated at room temperature for 90 minutes before transferring to GF/C filter membrane (PerkinElmer) pre-treated with 0.3% polyethyleneimine for 2 hours at 4 C. The filter membrane was washed six times with ice cold wash buffer (25 mM HEPES, pH 7.4, 5 mM MgCl2, 1 mM CaCl2, 500 mM NaCl, 0.01% (m/v) azide), dried, and sealed in a RLB sample bag (Agilent Technologies).
Type: cell-based

Sequence of C-C chemokine receptor type 2 (P41597 whole entry): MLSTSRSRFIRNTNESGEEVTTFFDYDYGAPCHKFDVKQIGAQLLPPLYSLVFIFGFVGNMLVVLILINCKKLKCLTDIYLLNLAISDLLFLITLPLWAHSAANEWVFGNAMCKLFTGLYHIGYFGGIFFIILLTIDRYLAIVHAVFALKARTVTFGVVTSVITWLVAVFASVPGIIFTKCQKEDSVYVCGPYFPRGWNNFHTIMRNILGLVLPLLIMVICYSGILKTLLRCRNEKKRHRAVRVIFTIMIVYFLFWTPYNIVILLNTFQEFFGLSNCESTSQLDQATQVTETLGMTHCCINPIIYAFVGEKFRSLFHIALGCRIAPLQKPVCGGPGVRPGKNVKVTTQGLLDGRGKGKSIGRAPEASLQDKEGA

Row | Compound | IC50 | Ki
1 | CO[C@@H]1COCC[C@@H]1N[C@@H]1C[C@H]2CCC[C@@]2(C(=O)N2C[C@@H]3C[C@H]2CN3c2cc(C(F)(F)F)cc(C(F)(F)F)c2)C1 | 1520 nM | –
2 | CO[C@@H]1COCC[C@@H]1N[C@@H]1C[C@H]2CCC[C@@]2(C(=O)N2C[C@@H]3C[C@H]2CN3c2ccc(Cl)c(C(F)(F)F)c2)C1 | 17.6 nM | 17 nM
